Results on 31 compounds are retold here after patent publication US9024033B2, “Anti-malarial agents” (MMV Medicines for Malaria Venture, priority 2010, dated 2015).

Converted amounts (≈) assume the structure as drawn.

Common to all, as to type: cell-based
One assay has as its system P. falciparum (K1). The assay is described as follows: Assay 1: anti-malarial in vitro efficacy, P. falciparum K1. The conditions noted are these: Plasmodium falciparum; strain K1, assay 1. How it is done: (§1) The ability of aminopyridine derivatives according to the invention to kill P. falciparum parasites and/or to inhibit its proliferation was tested as follows:
(§2) Assay 1: The protocol used was as described in the supplemental material to Fiddock et al., 2004, Nature Reviews Drug Discovery, (3), p 509. […]

The next assay concerns P. falciparum (NF54). The assay is described as follows: Assay 1: anti-malarial in vitro efficacy, P. falciparum NF54. The conditions noted are these: Plasmodium falciparum; strain NF54, assay 1. As to the method:
as §1, §2

Another assay deals with P. falciparum (3D7). The assay is described as follows: Assay 2: DAPI imaging assay of parasite replication, P. falciparum 3D7. The conditions noted are these: Plasmodium falciparum, strain 3D7, 1.8 μM, 72 hours. As to the method:
as §1
(§3) Assay 2: Compounds were incubated in the presence of 2 or 3% ring stage parasite (P. falciparum 3D7 or Dd2) and 0.3% hematocrite in a total assay volume of 50 μL, for 72 hours in a humidified atmosphere at 37° C., 5% O2 and 5% CO2, in Poly-D-lysine coated Cell Carrier Imaging plates (Perkin Elmer). After incubation plates were stained with DAPI (4′,6-diamidino-2-phenylindole, Invitrogen) in the presence of Saponin and Triton X-100 (Sigma-Aldrich) and incubated for a further 5 hours at RT in the dark before imaging on the OPERATM HTS confocal imaging system (Perkin Elmer). The digital images obtained were then analyzed using the PerkinElmer Acapella spot detection software where spots which fulfil the criteria established for a stained parasite are counted. The % inhibition of parasite replication was calculated using DMSO and 2 μM Artemisinin control data. Measured % inhibition and EC50 (ng/ml) are reported in Tables 5 & 6 below against different strains of P. falciparum K1, NF54 (assay 1) and 3D7, Dd2 (assay 2), respectively).

For a further assay, the system named is P. falciparum (Dd2). The assay is described as follows: Assay 2: DAPI imaging assay of parasite replication, P. falciparum Dd2. The following applies: Plasmodium falciparum, strain Dd2, 1.8 μM, 72 hours. How it is done:
as §1, §3

On to `CC(=O)Nc1ccc(-c2cc(-c3ccc(S(C)(=O)=O)cc3)cnc2N)cn1` [Compound 79, N-{5-[2-amino-5-(4-(methylsulfonyl)-phenyl)pyridin-3-yl]pyridin-2-yl}acetamide], for which the EC50 with P. falciparum (K1) stood at 0.046 µg/mL (≈ 0.12 µM); with P. falciparum (NF54) it was 0.047 µg/mL (≈ 0.123 µM).

`CS(=O)(=O)c1ccc(-c2cnc(N)c(-c3ccc(C#N)cc3)c2)cc1` [Compound 25, 4-{2-amino-5-[4-(methylsulfonyl)-phenyl]pyridin-3-yl}benzonitrile]: the figures for the EC50 in the assay on P. falciparum (K1) and with P. falciparum (NF54) were 0.051 µg/mL (≈ 0.146 µM) and 0.056 µg/mL (≈ 0.16 µM), respectively.

As to `CS(=O)(=O)c1ccc(-c2cnc(N)c(-c3cccc(C(F)(F)F)c3)c2)cc1` [Compound 2, 5-(4-methylsulfonylphenyl)-3-[3-(trifluoromethyl)phenyl]pyridin-2-amine], the half-maximal effective concentration (EC50) in the assay on P. falciparum (K1) stood at 0.031 µg/mL (≈ 0.079 µM); in the assay with P. falciparum (NF54), 0.041 µg/mL (≈ 0.104 µM). Further, the inhibition at 1.8 µM in the assay with P. falciparum (3D7) was 99%; with P. falciparum (Dd2), 96%.

With `CN(C)CC(=O)Nc1ccc(-c2cc(-c3ccc(S(C)(=O)=O)cc3)cnc2N)cc1` [Compound 75, N-{4-[2-amino-5-(4-(methylsulfonyl)phenyl)pyridin-3-yl]phenyl}-2-(dimethylamino) acetamide], the values for the concentration giving a half-maximal response (EC50) with P. falciparum (K1) and in the assay with P. falciparum (NF54) were 0.11 µg/mL (≈ 0.259 µM) and 0.088 µg/mL (≈ 0.207 µM), respectively.

Take `CS(=O)(=O)c1ccc(-c2cnc(N)c(-c3cnc(N)nc3)c2)cc1` [Compound 55, 5-{2-amino-5-[4-(methylsulfonyl)-phenyl]pyridin-3-yl}pyrimidin-2-amine]: the values for the EC50 with P. falciparum (K1) and with P. falciparum (NF54) were 0.041 µg/mL (≈ 0.12 µM) and 0.04 µg/mL (≈ 0.117 µM), respectively.

Consider `CS(=O)(=O)c1ccc(-c2cnc(N)c(-c3ccc(C(N)=O)cc3)c2)cc1` [Compound 28, 4-{2-amino-5-[4-(methylsulfonyl)phenyl]pyridin-3-yl} benzamide], for which the concentration for a half-maximal effect (EC50) in the assay on P. falciparum (K1) and in the assay on P. falciparum (NF54) was 0.01 µg/mL (≈ 0.0272 µM) throughout.

Take `CN1CCN(c2ccc(-c3cc(-c4ccc(O)cc4)cnc3N)cc2)CC1` [Compound 9, 4-[6-amino-5-[4-(4-methylpiperazin-1-yl)phenyl]pyridin-3-yl]phenol]: the inhibition at 1.8 µM in the assay on P. falciparum (3D7) is 76%; in the assay with P. falciparum (Dd2), 53%.

In the case of `Cc1ccc(-c2cc(-c3ccc(S(C)(=O)=O)cc3)cnc2N)cn1` [Compound 43, 3-(2-methylpyridin-5-yl)-5-[4-(methylsulfonyl)phenyl] pyridin-2-amine], the values for the EC50 with P. falciparum (K1) and with P. falciparum (NF54) were 0.0098 µg/mL (≈ 0.0289 µM) and 0.0094 µg/mL (≈ 0.0277 µM), respectively.

Consider `Cc1ccc(-c2cc(-c3ccc(S(C)(=O)=O)cc3)cnc2N)cc1` [Compound 65, 5-[4-(methylsulfonyl)phenyl]-3-p-tolylpyridin-2-amine], for which the EC50 with P. falciparum (K1) was 0.033 µg/mL (≈ 0.0975 µM); in the assay with P. falciparum (NF54) it was 0.034 µg/mL (≈ 0.1 µM).

With `CS(=O)(=O)c1ccc(-c2cnc(N)c(-c3ccc(-n4cccn4)cc3)c2)cc1` [Compound 47, 3-[4-(1H-pyrazol-1-yl)phenyl]-5-[4-(methylsulfonyl)phenyl] pyridin-2-amine], the EC50 is 0.085 µg/mL (≈ 0.218 µM) in the assay on P. falciparum (K1) and 0.089 µg/mL (≈ 0.228 µM) with P. falciparum (NF54).

Regarding `CS(=O)(=O)c1ccc(-c2cnc(N)c(-c3ccc(O)cc3)c2)cc1` [Compound 5, 4-[2-amino-5-(4-methylsulfonylphenyl)pyridin-3-yl]phenol], the inhibition at 1.8 µM in the assay on P. falciparum (3D7) and with P. falciparum (Dd2) was 98% throughout.

For `NC(=O)c1ccc(-c2cc(-c3ccc(C(=O)N4CCOCC4)cc3)cnc2N)cc1` [Compound 71, {4-[2-amino-3-(4-carbamoyl phenyl)pyridin-5-yl]phenyl}-(morpholino) methanone], the EC50 in the assay on P. falciparum (K1) came to 0.0068 µg/mL (≈ 0.0169 µM); in the assay on P. falciparum (NF54) it was 0.0079 µg/mL (≈ 0.0196 µM).

Regarding `CS(=O)(=O)c1ccc(-c2cnc(N)c(-c3ccc(C(F)(F)F)nc3)c2)cc1` [Compound 44, 3-[2-(trifluoromethyl)pyridin-5-yl]-5-[4-(methylsulfonyl)phenyl] pyridin-2-amine], the concentration for a half-maximal effect (EC50) in the assay on P. falciparum (K1) is 0.01 µg/mL (≈ 0.0254 µM).

For the compound `COc1cc(-c2cc(-c3ccc(S(C)(=O)=O)cc3)cnc2N)ccc1O` [Compound 4, 4-[2-amino-5-(4-methylsulfonylphenyl)pyridin-3-yl]-2-methoxyphenol], the inhibition at 1.8 µM turned out to be 99% in the assay on P. falciparum (3D7) and 96% with P. falciparum (Dd2).

As for `CS(=O)(=O)c1ccc(-c2cnc(N)c(-c3ccnc(C(F)(F)F)c3)c2)cc1` [Compound 42, 3-[2-(trifluoromethyl)pyridin-4-yl]-5-[4-(methylsulfonyl)phenyl] pyridin-2-amine], the EC50 in the assay with P. falciparum (K1) worked out at 0.061 µg/mL (≈ 0.155 µM); in the assay on P. falciparum (NF54), 0.071 µg/mL (≈ 0.18 µM).

As to `CS(=O)(=O)c1ccc(-c2cnc(N)c(-c3ccc4ncccc4c3)c2)cc1` [Compound 59, 5-[4-(methylsulfonyl)phenyl]-3-(quinolin-6-yl) pyridin-2-amine], the results for the EC50 with P. falciparum (K1) and in the assay with P. falciparum (NF54) were 0.098 µg/mL (≈ 0.261 µM) and 0.107 µg/mL (≈ 0.285 µM), respectively.

`NC(=O)c1ccc(-c2cnc(N)c(-c3ccc(C(N)=O)cc3)c2)cc1` [Compound 80, 4-[2-amino-3-(4-benzamido)pyridin-5-yl]benzamide]: the 50% effective concentration (EC50) was 0.028 µg/mL (≈ 0.0842 µM) in the assay with P. falciparum (K1) and 0.025 µg/mL (≈ 0.0752 µM) in the assay with P. falciparum (NF54).

With `COc1ccc(-c2cnc(N)c(-c3ccc(O)c(OC)c3)c2)cn1` [Compound 6, 4-[2-amino-5-(6-methoxypyridin-3-yl)pyridin-3-yl]-2-methoxyphenol], the inhibition at 1.8 µM with P. falciparum (3D7) and in the assay on P. falciparum (Dd2) was 98% throughout.

Consider `CNC(=O)c1ccc(-c2cc(-c3ccc(S(C)(=O)=O)cc3)cnc2N)cc1` [Compound 29, 4-{2-amino-5-[4-(methylsulfonyl)-phenyl]pyridin-3-yl}-N-methyl benzamide], for which the EC50 is 0.026 µg/mL (≈ 0.0682 µM) in the assay on P. falciparum (K1) and 0.03 µg/mL (≈ 0.0786 µM) with P. falciparum (NF54).

Take `CS(=O)(=O)c1ccc(-c2cnc(N)c(-c3cccc(C#N)c3)c2)cc1` [Compound 26, 3-{2-amino-5-[4-(methylsulfonyl)-phenyl]pyridin-3-yl}benzonitrile]: the values for the EC50 in the assay on P. falciparum (K1) and in the assay with P. falciparum (NF54) were 0.059 µg/mL (≈ 0.169 µM) and 0.061 µg/mL (≈ 0.175 µM), respectively.

For `COc1ccc(-c2cc(-c3ccc(CO)cc3)cnc2N)cn1` [Compound 8, [4-[6-amino-5-(6-methoxypyridin-3-yl)pyridin-3-yl]phenyl]methanol], in the assay with P. falciparum (3D7), the inhibition at 1.8 µM came out at 83%.

For `Cc1cc(-c2cnc(N)c(-c3ccc(N4CCN(C)CC4)cc3)c2)cc(C)c1O` [Compound 7, 4-[6-amino-5-[4-(4-methylpiperazin-1-yl)phenyl]pyridin-3-yl]-2,6-dimethylphenol], the inhibition at 1.8 µM turned out to be 93% in the assay on P. falciparum (3D7) and 96% in the assay on P. falciparum (Dd2).

In the case of `CS(=O)(=O)c1ccc(-c2cnc(N)c(-c3cccc(O)c3)c2)cc1` [Compound 3, 3-[2-amino-5-(4-methylsulfonylphenyl)pyridin-3-yl]phenol], the values for the inhibition at 1.8 µM in the assay on P. falciparum (3D7) and in the assay on P. falciparum (Dd2) were 99% and 94%, respectively.

Compound `COc1ccc(-c2cc(-c3ccc(S(C)(=O)=O)cc3)cnc2N)cn1` [Compound 1, 3-(6-Methoxypyridin-3-yl)-5-(4-methylsulfonylphenyl) pyridin-2-amine] registered a half-maximal effective concentration (EC50) with P. falciparum (K1) of 0.014 µg/mL (≈ 0.0394 µM).

Consider `CS(=O)(=O)c1ccc(-c2cnc(N)c(-c3ccc(CO)nc3)c2)cc1` [Compound 69, {5-[2-amino-5-(4-(methylsulfonyl)-phenyl)pyridin-3-yl]pyridin-2-yl}methanol], for which the EC50 was 0.06 µg/mL (≈ 0.169 µM) with P. falciparum (K1) and 0.061 µg/mL (≈ 0.172 µM) with P. falciparum (NF54).

As for `CS(=O)(=O)c1ccc(-c2cnc(N)c(-c3ccc(OC(F)(F)F)cc3)c2)cc1` [Compound 37, 5-[4-(methylsulfonyl)phenyl]-3-[4-(trifluoromethoxy)phenyl]pyridin-2-amine], the EC50 stood at 0.097 µg/mL (≈ 0.238 µM) with P. falciparum (K1) and 0.099 µg/mL (≈ 0.242 µM) in the assay with P. falciparum (NF54).

As for `CS(=O)(=O)c1ccc(-c2cnc(N)c(-c3ccc(C(F)(F)F)cc3)c2)cc1` [Compound 85, 3-[4-(trifluoromethyl)phenyl]-5-[4-(methylsulfonyl)phenyl]pyridin-2-amine], the EC50 in the assay with P. falciparum (K1) worked out at 0.0086 µg/mL (≈ 0.0219 µM); with P. falciparum (NF54), 0.0081 µg/mL (≈ 0.0206 µM).

On to `CS(=O)(=O)c1ccc(-c2cnc(N)c(-c3ccc(S(C)(=O)=O)cc3)c2)cc1` [Compound 17, 3,5-di-[4-(methylsulfonyl)phenyl]pyridin-2-amine], for which the concentration for a half-maximal effect (EC50) came out at 0.032 µg/mL (≈ 0.0795 µM) in the assay with P. falciparum (K1) and 0.031 µg/mL (≈ 0.077 µM) in the assay with P. falciparum (NF54).

Consider `CS(=O)(=O)c1ccc(-c2cnc(N)c(-c3cccc(OC(F)(F)F)c3)c2)cc1` [Compound 36, 5-[4-(methysulfonyl)phenyl]-3-[3-(trifluoromethoxy)phenyl] pyridin-2-amine], for which the concentration for a half-maximal effect (EC50) with P. falciparum (K1) worked out at 0.074 µg/mL (≈ 0.181 µM); in the assay on P. falciparum (NF54) it was 0.078 µg/mL (≈ 0.191 µM).

With `COc1ncc(-c2cc(-c3ccc(S(C)(=O)=O)cc3)cnc2N)cn1` [Compound 31, 3-(2-methoxypyrimidin-5-yl)-5-[4-(methylsulfonyl)phenyl]pyridin-2-amine], the concentration giving a half-maximal response (EC50) amounted to 0.098 µg/mL (≈ 0.275 µM) with P. falciparum (K1) and 0.093 µg/mL (≈ 0.261 µM) in the assay on P. falciparum (NF54).

Regarding `CS(=O)(=O)c1ccc(-c2cnc(N)c(-c3ccc(S(C)(=O)=O)nc3)c2)cc1` [Compound 78, 5-[4-(methylsulfonyl)phenyl]-3-[2-(methylsulfonyl)-pyridin-5-yl]pyridin-2-amine], the EC50 in the assay on P. falciparum (K1) was found to be 0.11 µg/mL (≈ 0.273 µM); in the assay on P. falciparum (NF54), 0.094 µg/mL (≈ 0.233 µM).

For orientation: EC50 means the midpoint of the concentration-response curve. What is called inhibition is the share of the control response that was lost under treatment.
